# Values of other authors in US20250325495A1, “SILK NANOPARTICLE SYNTHESIS: TUNING SIZE, DISPERSITY, AND SURFACE CHEMISTRY FOR DRUG DELIVERY” (Trustees of Tufts College, priority 2022, published 2025).
# Tested on: GBM cell lines
# Details: compared with temozolomide
smiles,measurement,value
COc1cccc2c1C(=O)c1c(O)c3c(c(O)c1C2=O)C[C@@](O)(C(=O)CO)C[C@@H]3O[C@H]1C[C@H](N)[C@H](O)[C@H](C)O1 [doxorubicin],cytotoxic effects,superior cytotoxic effects
